{"source": "paper PMC11575912", "about": "(Journal of Clinical Oncology, 2024)", "origin": "cited, not measured here", "key": {"[1]": {"conditions": "once daily"}, "[2]": {"test_system": "p110α over the β, δ, and γ isoforms", "conditions": "biochemical assays"}, "CYP": {"test_system": "CYP", "conditions": "in vitro or in the human mass balance study; ref unpublished data on file"}}}
{"smiles": "C[C@H](Nc1ccc2c(c1)OCCn1cc(N3C(=O)OC[C@H]3C(F)F)nc1-2)C(N)=O", "note": "[inavolisib]", "values": [{"measurement": "Single-agent maximum tolerable dose", "setting": "[1]", "value": 9, "unit": "mg"}, {"measurement": "Selectivity for p110α over the β, δ, and γ isoforms", "setting": "[2]", "value": "> 300", "unit": "fold"}, {"measurement": "CYP-mediated metabolism", "setting": "CYP", "value": "did not undergo extensive CYP-mediated metabolism"}]}
